Results on one compound are retold here after PMC5908160, “Inhibition of sperm motility in male macaques with EP055, a potential non-hormonal male contraceptive” (PLoS ONE, 2018).

pIC50: −log10 of the molar value.

Data set [1] in a line: EP054/EP055 plasma half-life in cynomolgus male macaques. Details: species or system Macaca fascicularis. The following applies: cynomolgus monkey, in vivo, iv, 1 mg/kg, summary of both studies. As to the method: Half-life measurements for EP054/EP055 were done by Sinclair Research Center, LLC (SRC) (Study No. S14109, Auxvasse, MO). This study was reviewed and approved by the Sinclair IUCAC committee and complied with all applicable sections of USDA Policy 12 and the Final Rules of the Animal Welfare Act regulation (9 CFR). This study used 3 naïve cynomolgus (Macaca fascicularis) males (3-4 yrs old, 4 kg or less). Doses of EP054 in 3% DMSO-PBS, pH 7.6 were infused by i.v. at 1.0 mg/kg. The infusion rate was 4 ml/min. Plasma samples were collected at 0, 5, 15, 30 min and 1, 4, 8 and 24 hours, and immediately frozen on dry ice. Samples were stored at -80 °C until processing.
Sample preparation and LC-MS/MS analysis were done by OpAns LLC (Durham, NC). Plasma samples (both rat and macaque) were thawed at room temperature and processed by adding 160 µL of methanol (including 10 µL internal standard) to 25 µL of the sample. Samples were vortexed for 5 minutes, centrifuged at 2684 x g for 5 minutes. 50 µL of supernatant was removed for analysis by HPLC-MS/MS.
Therefore, samples were analyzed for the presence of EP055.

Data set [2] concerns human sperm. As to the kind of experiment: CASA (Computer Assisted Sperm Analysis) assay of human sperm motility. Particulars: n = 4 donors, read-out: average relative motility index (RMI) IC50. The data set is classed as cell-based. As for the experimental part: Human semen samples were obtained from the Department of Obstetrics and Gynecology, University of North Carolina Memorial Hospital, Chapel Hill, NC. […] Semen samples were allowed to liquefy for 30 minutes and subjected to standard semen analysis to determine acceptability before freezing. All samples were stored in liquid nitrogen, and de-identified by the Department of Obstetrics and Gynecology, University of North Carolina Memorial Hospital, Chapel Hill, NC before further processing. A density gradient (Isolate catalog number 99264, Irving Scientific, Irving CA, or SpermCare catalog number 2221 and 2222, InvitroCare Inc., Frederick MD) was used to prepare spermatozoa for further analysis. At least 3 independent experiments were done per assay, each using a single donor.
Computer Assisted Sperm Analysis (CASA) was conducted as previously described. Briefly sperm were washed after the density gradient with EP buffer-0.4% BSA and resuspended in modified M16 for compound treatments. Sperm were diluted to 5 x 10^6/mL in 12x75 mm glass tubes with the appropriate treatment and incubated at 37°C in 5% CO2. […] The relative mobility index (RMI) is a measure of the effect of compound on sperm and is calculated as the VSL x %normal motility and normalized to the appropriate DMSO control.

A short description of data set [3]: EP055 testis, epididymis and plasma levels in cynomolgus males after i.v. infusion. Particulars: 63.25 mg/kg i.v. The data set is classed as in vivo, Macaca fascicularis. The text has this: Evaluation of the effects of an i.v. infusion of EP055 on male cynomolgus macaque reproductive system was done by Sinclair Research Center, LLC. (Study No: S14574). This study was reviewed and approved by the Sinclair IUCAC committee and complied with all applicable sections of USDA Policy 12 and the Final Rules of the Animal Welfare Act regulation (9 CFR). This study used 6 naïve cynomolgus males (3-4 yrs old, 4 kg or less). Doses of EP055 in 5% DMSO-PBS, pH 7.6 or vehicle control were infused by i.v. at 63.25 mg/kg. The infusion rate was 4 ml/min. Plasma and tissues (epididymis and testis) were collected at 2 hr or 6 hr and immediately frozen on dry ice. Samples were stored at -80 °C until processing. Half-life was approximated using the 2 hr and 6 hr points and an estimation of the initial plasma level using the initial dose of […], the circulating blood volume of 65 ml/kg, average hematocrit of 41.7 (S2 Table) and average animal size (3.72 kg for n=4).
Semen or tissue samples were thawed at room temperature. PBS at pH 7.6 was added to each sample at a ratio of 2:1 and sonicated in an ice chilled bath for 5 minutes before homogenization using a Polytron unit (Kinematica AG, Lucerne, Switzerland). An aliquot (25 uL) of each sample homogenate was processed as described for plasma samples.

In general, pIC50 refers to the negative decadic logarithm of the IC50, by convention in mol/L. As for `COC(=O)NNc1nc(Nc2ccc(NC(C)=O)c(O)c2)nc(SCC(=O)O)n1` [EP055], the half-life in data set [1] is 10 to 12 min; in data set [3] (cynomolgus monkey, iv, extrapolated from 2 hr and 6 hr points and calculated initial plasma concentration, read-out: estimated plasma half-life (t1/2) in target tissue experiment), 11.9 min. Also, the pIC50 in data set [2] was 3.70. In addition, the “epididymis versus testis level (ug/mg of tissue)” value in data set [3] (2 and 6 hours) is “significantly (p < 0.05) more EP055 (ug/mg of tissue) in the epididymis after 2 hours but not after 6 hours”. The “total amounts in testis versus epididymis” value in data set [3] (2 and 6 hours) was “not significantly different at 2 and 6 hours”. Besides, the “presence in testis and epididymis” value in data set [3] (2 and 6 hours post-infusion) is “detected in testis and epididymis two hours and six hours post-infusion”.
